Reference: patent US20260015325A1, “ALKOXY HETEROARYL- CARBOXAMIDE OR THIOAMIDE COMPOUNDS” (SYNGENTA CROP PROTECTION AG, priority 2022, published 2026)
Like-named read-outs stand apart in the source and are kept apart here.

Key:
Assay type in all cases: in vivo
[1] = tested on: Bemisia tabaci (Cotton White Fly); test: Bemisia tabaci (Cotton White Fly): feeding/contact activity, cotton leaf discs; settings: foliar, 144 h
Experimental: Example B1: Bemisia tabaci (Cotton White Fly): Feeding/Contact Activity
Cotton leaf discs were placed on agar in 24-well microtiter plates and sprayed with aqueous test solutions prepared from 10′000 ppm DMSO stock solutions. After drying the leaf discs were infested with adult white flies. The samples were checked for mortality 6 days after incubation.

[2] = tested on: Euschistus heros (Neotropical Brown Stink Bug); test: Euschistus heros (Neotropical Brown Stink Bug), soybean leaves; settings: 120 h, read-out: effect in at least one of the two categories (mortality or growth inhibition); for percent effect (mortality or growth inhibition) at 200 ppm: application rate of 200 ppm, N2 nymphs on sprayed soybean leaves, 5 days after infestation
Experimental: Example B4: Euschistus heros (Neotropical Brown Stink Bug)
Soybean leaves on agar in 24-well microtiter plates were sprayed with aqueous test solutions prepared from 10′000 ppm DMSO stock solutions. After drying the leaves were infested with N2 nymphs. The samples were assessed for mortality and growth inhibition in comparison to untreated samples 5 days after infestation.

[3] = tested on: Myzus persicae (Green Peach Aphid); test: Myzus persicae (Green Peach Aphid): feeding/contact activity, sunflower leaf discs; settings: foliar, 144 h
Experimental: Example B6: Myzus persicae (Green Peach Aphid): Feeding/Contact Activity
Sunflower leaf discs were placed onto agar in a 24-well microtiter plate and sprayed with aqueous test solutions prepared from 10′000 ppm DMSO stock solutions. After drying, the leaf discs were infested with an aphid population of mixed ages. The samples were assessed for mortality 6 days after infestation.

[4] = tested on: Myzus persicae (Green Peach Aphid); test: Myzus persicae (Green Peach Aphid): systemic activity, pea seedlings; settings: 144 h
Experimental: Example B7: Myzus persicae (Green Peach Aphid). Systemic Activity
Roots of pea seedlings infested with an aphid population of mixed ages were placed directly into aqueous test solutions prepared from 10′000 DMSO stock solutions. The samples were assessed for mortality 6 days after placing seedlings into test solutions.

[5] = tested on: Myzus persicae (Green Peach Aphid); test: Myzus persicae (Green Peach Aphid): intrinsic activity, sucrose solution; settings: 120 h
From the text: Example B8: Myzus persicae (Green Peach Aphid). Intrinsic Activity
Test compounds prepared from 10′000 ppm DMSO stock solutions were applied by pipette into 24-well microtiter plates and mixed with sucrose solution. The plates were closed with a stretched Parafilm. A plastic stencil with 24 holes was placed onto the plate and infested pea seedlings were placed directly on the Parafilm. The infested plate was closed with a gel blotting paper and another plastic stencil and then turned upside down. The samples were assessed for mortality 5 days after infestation.

[6] = tested on: Tetranychus urticae (Two-Spotted Spider Mite); test: whole plant or invertebrate; settings: foliar, 192 h
Experimental: Example B11: Tetranychus urticae (Two-Spotted Spider Mite): Feeding/Contact Activity
Bean leaf discs on agar in 24-well microtiter plates were sprayed with aqueous test solutions prepared from 10′000 ppm DMSO stock solutions. After drying the leaf discs were infested with a mite population of mixed ages. The samples were assessed for mortality on mixed population (mobile stages) 8 days after infestation.

[7] = tested on: Frankliniella occidentalis (Western Flower Thrips); test: Frankliniella occidentalis (Western Flower Thrips): feeding/contact activity, sunflower leaf discs; settings: foliar, 168 h, application rate of 200 ppm, mixed ages on sprayed sunflower leaf discs, 7 days after infestation
Experimental: Example B5: Frankliniella occidentalis (Western Flower Thrips): Feeding/Contact Activity
Sunflower leaf discs were placed on agar in 24-well microtiter plates and sprayed with aqueous test solutions prepared from […] stock solutions. After drying the leaf discs were infested with a Frankliniella population of mixed ages. The samples were assessed for mortality 7 days after infestation.

[8] = application rate of 200 ppm, adult white flies on sprayed cotton leaf discs, 6 days after incubation, read-out: mortality
[9] = application rate of 200 ppm, mixed ages on sprayed sunflower leaf discs, 6 days after infestation, read-out: mortality
[10] = test rate of 24 ppm, systemic, roots of infested pea seedlings in test solution, 6 days, read-out: mortality
[11] = test rate of 12 ppm, intrinsic, mixed with sucrose solution under Parafilm, 5 days after infestation, read-out: mortality
[12] = application rate of 200 ppm, mixed population (mobile stages) on sprayed bean leaf discs, 8 days after infestation, read-out: mortality

C[C@@H](COc1cnc(Cl)c(C(=O)NC2CC2)c1)N(CC#N)S(=O)(=O)C(F)(F)F [Compound P-15, 2-chloro-5-[(2S)-2-[cyanomethyl (trifluoromethylsulfonyl)amino]propoxy]-N-cyclopropyl-pyridine-3-carboxamide]
≥ 80%: mortality at 200 ppm [1, 8] | percent effect (mortality or growth inhibition) at 200 ppm [2] | mortality at 200 ppm [3, 9] | mortality at 24 ppm [4, 10] | mortality at 12 ppm [5, 11] | mortality at 200 ppm [6, 12]

C[C@@H](COc1cnc(Cl)c(C(=O)N(C)C2CC2)c1)NS(=O)(=O)C(F)(F)F [Compound P-58, 2-chloro-N-cyclopropyl-N-methyl-5-[(2S)-2-(trifluoromethylsulfonylamino)propoxy]pyridine-3-carboxamide]
≥ 80%: mortality at 200 ppm [1, 8] | percent effect (mortality or growth inhibition) at 200 ppm [2] | mortality at 200 ppm [3, 9] | mortality at 24 ppm [4, 10] | mortality at 12 ppm [5, 11]

Cc1cnc(OC[C@H](C)NS(=O)(=O)C(F)(F)F)cc1C(=O)NC12CC(C1)C2 [Compound P-66, N-(1-bicyclo[1.1.1]pentanyl)-5-methyl-2-[(2S)-2-(trifluoromethylsulfonylamino)propoxy]pyridine-4-carboxamide]
≥ 80%: percent effect (mortality or growth inhibition) at 200 ppm [2]

CCNC(=O)c1cc(OC[C@H](C)NS(=O)(=O)C(F)(F)F)cnc1Cl [Compound P-50, 2-chloro-N-ethyl-5-[(2S)-2-(trifluoromethylsulfonylamino)propoxy]pyridine-3-carboxamide]
≥ 80%: percent effect (mortality or growth inhibition) at 200 ppm [2] | mortality at 200 ppm [3, 9] | mortality at 12 ppm [5, 11]

C[C@@H](COc1cnc(Cl)c(C(=O)NC2CC2)c1)N(C)S(=O)(=O)C(F)(F)F [Compound P-16, 2-chloro-N-cyclopropyl-5-[(2S)-2-[methyl(trifluoromethylsulfonyl)amino]propoxy]pyridine-3-carboxamide]
≥ 80%: percent effect (mortality or growth inhibition) at 200 ppm [2] | mortality at 200 ppm [3, 9] | mortality at 24 ppm [4, 10] | mortality at 12 ppm [5, 11] | mortality at 200 ppm [6, 12]

COCN([C@@H](C)COc1cnc(C)c(C(=O)NC2CC2)c1)S(=O)(=O)C(F)(F)F [Compound P-61, N-cyclopropyl-5-[(2S)-2-[methoxymethyl (trifluoromethylsulfonyl)amino]propoxy]-2-methyl-pyridine-3-carboxamide]
≥ 80%: percent effect (mortality or growth inhibition) at 200 ppm [2]

CC(C)C(=O)OCN([C@@H](C)COc1cnc(Cl)c(C(=O)NC2(C#N)CC2)c1)S(=O)(=O)C(F)(F)F [Compound P-9, [[(1S)-2-[[6-chloro-5-[(1-cyanocyclopropyl)carbamoyl]-3-pyridyl]oxy]-1-methyl-ethyl]-(trifluoromethylsulfonyl)amino]methyl 2-methylpropanoate]
≥ 80%: mortality at 200 ppm [1, 8] | mortality at 200 ppm [7] | mortality at 200 ppm [3, 9] | mortality at 12 ppm [5, 11]

Cc1ncc(OC[C@H](C)NS(=O)(=O)C(F)(F)F)cc1C(=O)NC1CON(CC(F)(F)F)C1=O (stereo partly drawn) [Compound P-30, 2-methyl-N-[3-oxo-2-(2,2,2-trifluoroethyl)isoxazolidin-4-yl]-5-[(2S)-2-(trifluoromethylsulfonylamino)propoxy]pyridine-3-carboxamide]
≥ 80%: mortality at 200 ppm [7]

Cc1ncc(OC[C@H](C)NS(=O)(=O)C(F)(F)F)cc1C(=O)NC1CCN(c2ccc(F)cc2)C1=O (stereo partly drawn) [Compound P-35, N-[1-(4-fluorophenyl)-2-oxo-pyrrolidin-3-yl]-2-methyl-5-[(2S)-2-(trifluoromethylsulfonylamino)propoxy]pyridine-3-carboxamide]
≥ 80%: mortality at 200 ppm [7]

Cc1cnc(OC[C@H](C)NS(=O)(=O)C(F)(F)F)cc1C(=O)NCCOc1ccccc1F [Compound P-71, N-[2-(2-fluorophenoxy)ethyl]-5-methyl-2-[(2S)-2-(trifluoromethylsulfonylamino)propoxy]pyridine-4-carboxamide]
≥ 80%: percent effect (mortality or growth inhibition) at 200 ppm [2]

COC(=O)N([C@@H](C)COc1cnc(Cl)c(C(=O)NC2CC2)c1)S(=O)(=O)C(F)(F)F [Compound P-14, methyl N-[(1S)-2-[[6-chloro-5-(cyclopropylcarbamoyl)-3-pyridyl]oxy]-1-methyl-ethyl]-N-(trifluoromethylsulfonyl)carbamate]
≥ 80%: mortality at 200 ppm [1] | percent control (mortality or growth inhibition) at 200 ppm [2] | mortality at 200 ppm [3] | mortality at 24 ppm [4] | mortality at 12 ppm [5] | mortality at 200 ppm [6]

Cc1ncc(OC[C@H](C)NS(=O)(=O)C(F)(F)F)cc1C(=O)NC1CC1 [Compound P-62, N-cyclopropyl-2-methyl-5-[(2S)-2-(trifluoromethylsulfonylamino)propoxy]pyridine-3-carboxamide]
≥ 80%: mortality at 200 ppm [7]

C[C@@H](COc1cnc(Cl)c(C(=O)NC2(C#N)CC2)c1)N(CC#N)S(=O)(=O)C(F)(F)F [Compound P-8, 2-chloro-N-(1-cyanocyclopropyl)-5-[(2S)-2-[cyanomethyl(trifluoromethylsulfonyl)amino]propoxy]pyridine-3-carboxamide]
≥ 80%: mortality at 200 ppm [1, 8] | percent effect (mortality or growth inhibition) at 200 ppm [2] | mortality at 200 ppm [3, 9] | mortality at 24 ppm [4, 10] | mortality at 12 ppm [5, 11] | mortality at 200 ppm [6, 12]

C[C@@H](COc1cnc(Cl)c(C(=O)N(C)C2(C#N)CC2)c1)NS(=O)(=O)C(F)(F)F [Compound P-47, 2-chloro-N-(1-cyanocyclopropyl)-N-methyl-5-[(2S)-2-(trifluoromethylsulfonylamino)propoxy]pyridine-3-carboxamide]
≥ 80%: mortality at 200 ppm [1, 8] | mortality at 200 ppm [7] | mortality at 200 ppm [3, 9] | mortality at 12 ppm [5, 11]

C[C@@H](COc1cnc(Cl)c(C(=O)NC2(C#N)CCC2)c1)NS(=O)(=O)C(F)(F)F [Compound P-48, 2-chloro-N-(1-cyanocyclobutyl)-5-[(2S)-2-(trifluoromethylsulfonylamino)propoxy]pyridine-3-carboxamide]
≥ 80%: mortality at 200 ppm [7] | mortality at 200 ppm [3, 9] | mortality at 24 ppm [4, 10] | mortality at 12 ppm [5, 11] | mortality at 200 ppm [6, 12]

COCN([C@@H](C)COc1cnc(Cl)c(C(=O)N(C(C)=O)C2CC2)c1)S(=O)(=O)C(F)(F)F [Compound P-12, N-acetyl-2-chloro-N-cyclopropyl-5-[(2S)-2-[methoxymethyl(trifluoromethylsulfonyl)amino]propoxy]pyridine-3-carboxamide]
≥ 80%: mortality at 200 ppm [1, 8] | percent effect (mortality or growth inhibition) at 200 ppm [2] | mortality at 200 ppm [3, 9] | mortality at 12 ppm [5, 11] | mortality at 200 ppm [6, 12]
